Data from BindingDB's records for doi:10.1021/jm400050y (University of Michigan, 2013).

Experiments:
[1] = molecular target: Delta-type opioid receptor (Rattus norvegicus, UniProt P33533); assay: Displacement of [3H]diprenorphine from rat DOR expressed in rat C6 cells after 1 hr by liquid scintillation counting analysis
Mu-type opioid receptor [2] = molecular target: T1, Mu-type opioid receptor (Rattus norvegicus, UniProt P33535); assay: Displacement of [3H]diprenorphine from rat MOR expressed in rat C6 cells after 1 hr by liquid scintillation counting analysis
Mu-type opioid receptor [3] = molecular target: T1, Mu-type opioid receptor; assay: Agonist activity at rat MOR expressed in rat C6 cells assessed as stimulation of [35S]GTPgammaS binding after 1 hr by liquid scintillation counting analysis

T1 sequence (P33535 whole entry): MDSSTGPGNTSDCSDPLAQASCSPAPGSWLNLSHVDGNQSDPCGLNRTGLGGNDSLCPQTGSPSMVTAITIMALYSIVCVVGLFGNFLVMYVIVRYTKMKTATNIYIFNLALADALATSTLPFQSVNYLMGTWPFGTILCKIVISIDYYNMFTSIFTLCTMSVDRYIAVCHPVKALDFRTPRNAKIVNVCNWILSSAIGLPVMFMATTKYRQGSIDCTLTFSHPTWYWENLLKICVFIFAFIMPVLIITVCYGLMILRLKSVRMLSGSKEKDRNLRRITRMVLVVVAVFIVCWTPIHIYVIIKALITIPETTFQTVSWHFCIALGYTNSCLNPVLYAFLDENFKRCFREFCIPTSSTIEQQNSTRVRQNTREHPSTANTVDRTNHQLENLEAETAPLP
Delta-type opioid receptor, sequence (P33533 whole entry): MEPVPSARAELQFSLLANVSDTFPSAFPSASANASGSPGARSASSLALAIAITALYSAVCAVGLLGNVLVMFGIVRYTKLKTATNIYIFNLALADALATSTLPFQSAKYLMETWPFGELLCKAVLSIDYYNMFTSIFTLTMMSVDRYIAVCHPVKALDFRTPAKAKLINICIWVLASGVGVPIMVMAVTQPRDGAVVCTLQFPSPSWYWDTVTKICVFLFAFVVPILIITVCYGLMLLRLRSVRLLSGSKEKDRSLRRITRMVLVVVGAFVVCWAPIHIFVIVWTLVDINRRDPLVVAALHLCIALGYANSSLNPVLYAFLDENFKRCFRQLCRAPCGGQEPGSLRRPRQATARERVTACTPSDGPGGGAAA

| Structure (SMILES) | Ki [1] | Ki (Mu-type opioid receptor [2]) | EC50 (Mu-type opioid receptor [3]) |
| --- | --- | --- | --- |
| Cc1cc(O)cc(C)c1C[C@H](N)C(=O)N[C@H]1CCNc2ccc(CCc3ccccc3)cc21 | 120 nM | 16 nM |  |
| Cc1cc(O)cc(C)c1C[C@H](N)C(=O)N[C@@H]1CCNc2ccc(CCc3ccccc3)cc21 | 8.9 nM | 0.24 nM | 1.1 nM |
